Results published in PubChem BioAssay (NCI).
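GI50 marks 50% less growth. Definition used: TGI = concentration required for complete inhibition of growth.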

What was measured:
Assay in all cases: NCI anticancer screen, dose series, 384-well format
COLO 205 colon = test system: COLO 205 colon
HT29 colon = test system: HT29 colon
SW-620 colon = test system: SW-620 colon
UACC-257 melanoma = test system: UACC-257 melanoma
HOP-92 NSCLC = test system: HOP-92 NSCLC
SN12C renal = test system: SN12C renal
TK-10 renal = test system: TK-10 renal
K-562 leukemia = test system: K-562 leukemia
MDA-MB-231 breast = test system: MDA-MB-231 breast
HOP-62 NSCLC = test system: HOP-62 NSCLC
SF-268 CNS = test system: SF-268 CNS
RPMI-8226 leukemia = test system: RPMI-8226 leukemia
M14 melanoma = test system: M14 melanoma
OVCAR-4 ovarian = test system: OVCAR-4 ovarian
HCT-15 colon = test system: HCT-15 colon
OVCAR-5 ovarian = test system: OVCAR-5 ovarian
T-47D breast = test system: T-47D breast
PC-3 prostate = test system: PC-3 prostate
MOLT-4 leukemia = test system: MOLT-4 leukemia
SK-MEL-5 melanoma = test system: SK-MEL-5 melanoma
SK-MEL-2 melanoma = test system: SK-MEL-2 melanoma
NCI-H460 NSCLC = test system: NCI-H460 NSCLC
MALME-3M melanoma = test system: MALME-3M melanoma
MDA-MB-435 melanoma = test system: MDA-MB-435 melanoma
RXF 393 renal = test system: RXF 393 renal
DU-145 prostate = test system: DU-145 prostate
CCRF-CEM leukemia = test system: CCRF-CEM leukemia
HCC-2998 colon = test system: HCC-2998 colon
BT-549 breast = test system: BT-549 breast
NCI-H226 lung = test system: NCI-H226 lung
SR leukemia = test system: SR leukemia
OVCAR-8 ovarian = test system: OVCAR-8 ovarian
HL-60(TB) leukemia = test system: HL-60(TB) leukemia
UACC-62 melanoma = test system: UACC-62 melanoma
ACHN renal = test system: ACHN renal
CAKI-1 renal = test system: CAKI-1 renal
NCI-H322M lung = test system: NCI-H322M lung
NCI-H23 lung = test system: NCI-H23 lung
MCF7 breast = test system: MCF7 breast
IGROV1 ovarian = test system: IGROV1 ovarian
U251 glioblastoma = test system: U251 glioblastoma
SNB-19 CNS = test system: SNB-19 CNS
HCT-116 colon = test system: HCT-116 colon
SF-295 CNS = test system: SF-295 CNS
OVCAR-3 ovarian = test system: OVCAR-3 ovarian
KM12 colon = test system: KM12 colon
SF-539 CNS = test system: SF-539 CNS
MDA-MB-468 breast = test system: MDA-MB-468 breast
SK-MEL-28 melanoma = test system: SK-MEL-28 melanoma
EKVX NSCLC = test system: EKVX NSCLC
LOX IMVI melanoma = test system: LOX IMVI melanoma
SK-OV-3 ovarian = test system: SK-OV-3 ovarian
NCI-H522 lung = test system: NCI-H522 lung
A549 NSCLC = test system: A549 NSCLC
SNB-75 CNS = test system: SNB-75 CNS
A498 renal = test system: A498 renal
HS 578T breast = test system: HS 578T breast
786-0 renal = test system: 786-0 renal
NCI/ADR-RES ovarian = test system: NCI/ADR-RES ovarian

## Cc1ccncc1N1CCN(c2ccnc(Cl)c2)C1=O
COLO 205 colon
  GI50: > 100 µM
  TGI: > 100 µM
HT29 colon
  GI50: > 100 µM
  TGI: > 100 µM
SW-620 colon
  GI50: > 100 µM
  TGI: > 100 µM
UACC-257 melanoma
  GI50: > 100 µM
  TGI: > 100 µM
HOP-92 NSCLC
  GI50: > 100 µM
  TGI: > 100 µM
SN12C renal
  GI50: > 100 µM
  TGI: > 100 µM
TK-10 renal
  GI50: > 100 µM
  TGI: > 100 µM
K-562 leukemia
  GI50: > 100 µM
  TGI: > 100 µM
MDA-MB-231 breast
  GI50: > 100 µM
  TGI: > 100 µM
HOP-62 NSCLC
  GI50: > 100 µM
  TGI: > 100 µM
SF-268 CNS
  GI50: > 100 µM
  TGI: > 100 µM
RPMI-8226 leukemia
  GI50: > 100 µM
  TGI: > 100 µM
M14 melanoma
  GI50: > 100 µM
  TGI: > 100 µM
OVCAR-4 ovarian
  GI50: > 100 µM
  TGI: > 100 µM
HCT-15 colon
  GI50: > 100 µM
  TGI: > 100 µM
OVCAR-5 ovarian
  GI50: > 100 µM
  TGI: > 100 µM
T-47D breast
  GI50: > 100 µM
  TGI: > 100 µM
PC-3 prostate
  GI50: > 100 µM
  TGI: > 100 µM
MOLT-4 leukemia
  GI50: > 100 µM
  TGI: > 100 µM
SK-MEL-5 melanoma
  GI50: > 100 µM
  TGI: > 100 µM
SK-MEL-2 melanoma
  GI50: > 100 µM
  TGI: > 100 µM
NCI-H460 NSCLC
  GI50: > 100 µM
  TGI: > 100 µM
MALME-3M melanoma
  GI50: > 100 µM
  TGI: > 100 µM
MDA-MB-435 melanoma
  GI50: > 100 µM
  TGI: > 100 µM
RXF 393 renal
  GI50: > 100 µM
  TGI: > 100 µM
DU-145 prostate
  GI50: > 100 µM
  TGI: > 100 µM
CCRF-CEM leukemia
  GI50: > 100 µM
  TGI: > 100 µM
HCC-2998 colon
  GI50: > 100 µM
  TGI: > 100 µM
BT-549 breast
  GI50: > 100 µM
  TGI: > 100 µM
NCI-H226 lung
  GI50: > 100 µM
  TGI: > 100 µM
SR leukemia
  GI50: > 100 µM
  TGI: > 100 µM
OVCAR-8 ovarian
  GI50: > 100 µM
  TGI: > 100 µM
HL-60(TB) leukemia
  GI50: > 100 µM
  TGI: > 100 µM
UACC-62 melanoma
  GI50: > 100 µM
  TGI: > 100 µM
ACHN renal
  GI50: > 100 µM
  TGI: > 100 µM
CAKI-1 renal
  GI50: > 100 µM
  TGI: > 100 µM
NCI-H322M lung
  GI50: > 100 µM
  TGI: > 100 µM
NCI-H23 lung
  GI50: > 100 µM
  TGI: > 100 µM
MCF7 breast
  GI50: > 100 µM
  TGI: > 100 µM
IGROV1 ovarian
  GI50: > 100 µM
  TGI: > 100 µM
U251 glioblastoma
  GI50: > 100 µM
  TGI: > 100 µM
SNB-19 CNS
  GI50: > 100 µM
  TGI: > 100 µM
HCT-116 colon
  GI50: > 100 µM
  TGI: > 100 µM
SF-295 CNS
  GI50: > 100 µM
  TGI: > 100 µM
OVCAR-3 ovarian
  GI50: > 100 µM
  TGI: > 100 µM
KM12 colon
  GI50: > 100 µM
  TGI: > 100 µM
SF-539 CNS
  GI50: > 100 µM
  TGI: > 100 µM
MDA-MB-468 breast
  GI50: > 100 µM
  TGI: > 100 µM
SK-MEL-28 melanoma
  GI50: > 100 µM
  TGI: > 100 µM
EKVX NSCLC
  GI50: > 100 µM
  TGI: > 100 µM
LOX IMVI melanoma
  GI50: > 100 µM
  TGI: > 100 µM
SK-OV-3 ovarian
  GI50: > 100 µM
  TGI: > 100 µM
NCI-H522 lung
  GI50: > 100 µM
  TGI: > 100 µM
A549 NSCLC
  GI50: > 100 µM
  TGI: > 100 µM
SNB-75 CNS
  GI50: > 100 µM
  TGI: > 100 µM
A498 renal
  GI50: > 100 µM
  TGI: > 100 µM
HS 578T breast
  GI50: > 100 µM
  TGI: > 100 µM
786-0 renal
  GI50: > 100 µM
  TGI: > 100 µM
NCI/ADR-RES ovarian
  GI50: > 100 µM
  TGI: > 100 µM
